In PMC6364417, “Kinase inhibitor library screening identifies synergistic drug combinations effective in sensitive and resistant melanoma cells” (Journal of Experimental & Clinical Cancer Research : CR, 2019):

Legend:
Assay in all cases: Kinase inhibitor library screening, PrestoBlue cell viability, 1 or 10 μM, 72 h
501Mel cells (parental) = details: 501Mel Parental
Protocol: (§1) After 72 h of treatment, cell viability was assessed using the PrestoBlue Cell Viability Reagent (ThermoFisher Scientific). Measurements were performed with the CLARIOstar Monochromator microplate reader (BMG Labtech).
(§2) Kinase inhibitor library screening. […] Each cell line was treated in its sensitive form (parental), and also as 2 resistant derivatives, which were made resistant to either Vemurafenib (XP) or Dabrafenib (GP). Drugs were added at 2 different concentrations, 1 and 10 μM, for 72 h and cell viability was assessed using the PrestoBlue Cell Viability assay. Results are depicted as % viability compared to untreated cells. Each cell line was analyzed at least in duplicate. […] (XLSX 95 kb)

[1] = tested on: 501Mel-GP cells (Dabrafenib-resistant); details: 501Mel GP
Protocol: as §1, §2

[2] = tested on: 501Mel-XP cells (Vemurafenib-resistant); details: 501Mel XP
Protocol: as §1, §2

A375 cells (parental) = details: A375 Parental, 72 h
Protocol: as §1, §2

[3] = tested on: A375-GP cells (Dabrafenib-resistant); details: A375 GP; for cell viability (kinase inhibitor library screening): in %
Protocol: as §1, §2

[4] = tested on: A375-XP cells (Vemurafenib-resistant); details: A375 XP
Protocol: as §1, §2

IGR37 cells (parental) = details: IGR37 Parental
Protocol: as §1, §2

[5] = tested on: IGR37-GP cells (Dabrafenib-resistant); details: IGR37 GP
Protocol: as §1, §2

[6] = tested on: IGR37-XP cells (Vemurafenib-resistant); details: IGR37 XP
Protocol: as §1, §2

SMILES: Cn1cnc(N)c2ncnc1-2 [3-Methyladenine]
- Cell viability in kinase inhibitor library screening, 501Mel Parental, 1μΜ (501Mel cells (parental); 1μΜ, 72 h, in %): 107.2
- Cell viability in kinase inhibitor library screening, 501Mel Parental, 10μΜ (501Mel cells (parental); 10μΜ, 72 h, in %): 107.1
- Cell viability in kinase inhibitor library screening, 501Mel GP, 10μΜ ([1]; 10μΜ, 72 h, in %): 93.3
- Cell viability in kinase inhibitor library screening, 501Mel XP, 10μΜ ([2]; 10μΜ, 72 h, in %): 87.7
- Cell viability in kinase inhibitor library screening, A375 Parental, 10μΜ (A375 cells (parental)): 100.5
- Cell viability in kinase inhibitor library screening, A375 Parental, 1μΜ (A375 cells (parental); 1μΜ): 112.2
- Cell viability in kinase inhibitor library screening, A375 GP, 1μΜ ([3]; 1μΜ, 72 h): 104.5
- Cell viability in kinase inhibitor library screening, A375 XP, 1μΜ ([4]; 1μΜ, 72 h): 106.2
- Cell viability in kinase inhibitor library screening, A375 XP, 10μΜ ([4]; 10μΜ, 72 h): 109.5
- Cell viability in kinase inhibitor library screening, IGR37 Parental, 1μΜ (IGR37 cells (parental); 1μΜ, 72 h, in %): 108.7
- Cell viability in kinase inhibitor library screening, IGR37 Parental, 10μΜ (IGR37 cells (parental); 10μΜ, 72 h, in %): 106.4
- Cell viability in kinase inhibitor library screening, IGR37 GP, 10μΜ ([5]; 10μΜ, 72 h): 97%
- Cell viability in kinase inhibitor library screening, IGR37 GP, 1μΜ ([5]; 1μΜ, 72 h, in %): 107.1

SMILES: N#CC1(c2ccc(NC(=O)c3cccnc3NCc3ccncc3)cc2)CCCC1 [Apatinib (YN968D1)]
- cell viability (kinase inhibitor library screening) (501Mel cells (parental); 1μΜ, in %): 103.5
- cell viability (kinase inhibitor library screening) (501Mel cells (parental); 10μΜ, in %): 103.9
- cell viability (kinase inhibitor library screening) ([1]; 1μΜ, in %): 102.7
- cell viability (kinase inhibitor library screening) ([1]; 10μΜ, in %): 98.0
- cell viability (kinase inhibitor library screening) ([2]; 1μΜ, in %): 112.2
- cell viability (kinase inhibitor library screening) ([2]; 10μΜ, in %): 105.3
- cell viability (kinase inhibitor library screening) ([3]; 1μΜ): 97.5
- cell viability (kinase inhibitor library screening) ([3]; 10μΜ): 98.6
- cell viability (kinase inhibitor library screening) ([4]; 1μΜ, in %): 103.9
- cell viability (kinase inhibitor library screening) ([4]; 10μΜ, in %): 105.3
- cell viability (kinase inhibitor library screening) (IGR37 cells (parental); 1μΜ, in %): 103.0
- cell viability (kinase inhibitor library screening) (IGR37 cells (parental); 10μΜ, in %): 105.2
- cell viability (kinase inhibitor library screening) ([5]; 1μΜ, in %): 94.0
- cell viability (kinase inhibitor library screening) ([5]; 10μΜ, in %): 95.0
- cell viability (kinase inhibitor library screening) ([6]; 1μΜ, in %): 105.2
- cell viability (kinase inhibitor library screening) ([6]; 10μΜ, in %): 86.2

SMILES: OCCn1cc(-c2cnc3nnn(Cc4ccc5ncccc5c4)c3n2)cn1 [PF-04217903]
- cell viability (kinase inhibitor library screening) (501Mel cells (parental); 1μΜ, 72 h): 97.4%
- cell viability (kinase inhibitor library screening) (501Mel cells (parental); 10μΜ, 72 h): 99.2%
- cell viability (kinase inhibitor library screening) ([1]; 1μΜ, 72 h): 89.0%
- cell viability (kinase inhibitor library screening) ([1]; 10μΜ, 72 h): 82.3%
- cell viability (kinase inhibitor library screening) ([2]; 1μΜ, 72 h): 68.7%
- cell viability (kinase inhibitor library screening) ([2]; 10μΜ, 72 h): 68.6%
- cell viability (kinase inhibitor library screening) (A375 cells (parental); 1μΜ): 111.4%
- cell viability (kinase inhibitor library screening) ([4]; 1μΜ, 72 h): 107.0%
- cell viability (kinase inhibitor library screening) ([4]; 10μΜ, 72 h): 110.9%
- cell viability (kinase inhibitor library screening) (IGR37 cells (parental); 1μΜ, 72 h): 119.0%
- cell viability (kinase inhibitor library screening) (IGR37 cells (parental); 10μΜ, 72 h): 104.5%
- cell viability (kinase inhibitor library screening) ([5]; 1μΜ, 72 h): 105.7%
- cell viability (kinase inhibitor library screening) ([5]; 10μΜ, 72 h): 91.4%
- cell viability (kinase inhibitor library screening) ([6]; 10μΜ, 72 h): 67.3%

SMILES: CNC(=O)c1ccc(C)c(-n2c(C)cc(OCc3ccc(F)cc3F)c(Br)c2=O)c1 [PH-797804]
- Cell viability in kinase inhibitor library screening, 501Mel Parental, 1μΜ (501Mel cells (parental); 1μΜ, 72 h, in %): 98.2
- Cell viability in kinase inhibitor library screening, 501Mel GP, 1μΜ ([1]; 1μΜ, 72 h, in %): 106.6
- Cell viability in kinase inhibitor library screening, 501Mel GP, 10μΜ ([1]; 10μΜ, 72 h, in %): 91.3
- Cell viability in kinase inhibitor library screening, 501Mel XP, 1μΜ ([2]; 1μΜ, 72 h, in %): 90.4
- Cell viability in kinase inhibitor library screening, 501Mel XP, 10μΜ ([2]; 10μΜ, 72 h, in %): 84.3
- Cell viability in kinase inhibitor library screening, A375 Parental, 10μΜ (A375 cells (parental)): 84.4
- Cell viability in kinase inhibitor library screening, A375 Parental, 1μΜ (A375 cells (parental); 1μΜ): 109.2
- Cell viability in kinase inhibitor library screening, A375 GP, 1μΜ ([3]; 1μΜ, 72 h): 103.3
- Cell viability in kinase inhibitor library screening, A375 GP, 10μΜ ([3]; 10μΜ, 72 h): 87.3
- Cell viability in kinase inhibitor library screening, A375 XP, 10μΜ ([4]; 10μΜ, 72 h): 95.8
- Cell viability in kinase inhibitor library screening, IGR37 Parental, 1μΜ (IGR37 cells (parental); 1μΜ, 72 h, in %): 103.0
- Cell viability in kinase inhibitor library screening, IGR37 XP, 10μΜ ([6]; 10μΜ, 72 h): 74.4%
- Cell viability in kinase inhibitor library screening, IGR37 XP, 1μΜ ([6]; 1μΜ, 72 h, in %): 104.2
